Among the data in ChEMBL document CHEMBL3227937, “2',3'-Bis(2-chloroethyl)aminophosphoryl-3'-amino-3'-deoxyadenosine: a cyclic nucleotide with antitumor activity” (1979) are T/C, EC50 and ED50 values, retold here.

Experiment [1] is described as follows: Anticancer activity against mouse LE1210 cells allografted in mouse at 0.625 mg/kg, ip relative to control. It is filed as functional. The following applies: route intraperitoneal.
A further experiment concerns KB. Description: Cytotoxicity against human KB cells. It is filed as functional.

SMILES strings stand for the structures. ≈ marks a conversion by molar mass, not a printed value.

As a reminder, the T/C is the result in the treated group divided by that in the control group, in per cent.

As to `CN(C)c1ncnc2c1ncn2[C@@H]1O[C@H](CO)[C@H]2NP(=O)(N(CCCl)CCCl)O[C@H]21` (mixture of isomers), the T/C in experiment [1] is recorded as 101%.
`Nc1ncnc2c1ncn2[C@@H]1O[C@H](CO)[C@H]2NP(=O)(N(CCCl)CCCl)O[C@H]21` (single isomer, unassigned; isomer 1): the T/C in experiment [1] was determined as 101%. Moreover, the EC50 in the experiment with KB (Homo sapiens, KB, read-out: ED50 (the source's name)) amounted to 1.1 µg/mL (≈ 2.43 µM).
In the experiment with KB, `Nc1ncnc2c1ncn2[C@@H]1O[C@H](CO)[C@H]2NP(=O)(N(CCCl)CCCl)O[C@H]21` (single isomer, unassigned; isomer 2) had an ED50 of 0.66 µg/mL (≈ 1.46 µM).
